Assay results taken from patent US20150065709A1, “Aminoquinazoline Derivative And Use Thereof In Preparing Anti-Malignant Tumor Medicament” (METABOMICS, INC, priority 2012, published 2015).
Like-named read-outs stand apart in the source and are kept apart here.

Assays:
[1] = Long-term toxicity experiment (28 days) in rats; assay type: in vivo
Experimental: (§1) Experiment Animals: rats, male, 6-8 weeks of age, body weight: 180-250 g; dogs, male, about 24 months, body weight: 7-10 kg.
(§2) Preparation of sample: in rat's experiments the mixed formulation powder of the compound Ie was formulated into 0.1, 0.3 and 1 mg/mL homogeneous suspension for use; administration route: oral administration; […]. In dog's experiments the tablets of compound Ie were fed to dogs. […].
(§3) Sample collection: blood was collected at the time points of 1, 10, 20 and 28 days respectively, about 120-200 μL whole blood was collected from 3 animals at each time point. Blood was collected at 1 h, 4 h, 8 h and 24 h after administration.
(§4) Sample analysis: the collected samples were detected by LC-MS/MS, and the instrument model was SHIMADZU20 A-API4000.
(§5) Pharmacokinetic data analysis: the obtained plasma concentration data were fitted and calculated using WinNolin according to non-compartment model.

[2] = Long-term toxicity experiment (28 days) in dogs; assay type: in vivo; settings: dogs, 5 mg/kg, 28 days; reaction of Afatinib group greater than compound Ie group
Experimental: as §1, §2, §3, §4, §5

EGFR = EGFR (Homo sapiens, UniProt P00533); assay: Caliper Mobility Shift Assay, inhibition of EGFR kinase activity; assay type: biochemical
HER2 = HER2 (Homo sapiens, UniProt P04626); assay: Caliper Mobility Shift Assay, inhibition of HER2 kinase activity; assay type: biochemical
BT474 = assay: Inhibition of tumor cells, MTS method; assay type: cell-based; settings: Homo sapiens, BT-474, 72 hours
Experimental: (§6) (1) Compounds: in vitro studies the test compounds was dissolved in 100% DMSO and diluted until the final concentration of DMSO was 0.1%. The 0.1% (v/v) DMSO was added into culture medium as solvent control. 9 concentration gradients were tested and each gradient was repeated twice. (2) Tumor cell lines: the tumor cell lines were cultivated in RPMI10 culture medium containing 10% fetal calf serum in incubator at 37° C. in a 5% CO2 air incubator. The tested tumor cell lines were: BT474, MDA-MB-231, SK-Br-3, A431, H292, H1975, HCC827, A549, H1650 and H1734. (3) MTS method: cells were seeded into 96-well plate to give a density of about 3000 cells per well, and incubated overnight in a humidified incubator at 37° C. In the next day, the test compounds were added to the wells and further incubated for 72 hours. The cell activity was detected using MTS. IC50 was calculated (the concentration of a compound that is required for 50% inhibition of the cell growth versus the DMSO control group, using nonlinear regression analysis of software GraphPad Prism). […] In a 96-well plate, each test compound was tested at 9 dosage concentrations and each dosage was made in triplicate. Samples were added in 100 μL/well. Cell control and negative control wells contained diluents instead of compounds. Except the negative control well, 100 μL cell suspension of complete medium was added into each test well, wherein corresponding cell numbers were included to assure that the cells in cell control well just cover the bottom of the well as the required incubation time was reached. The plate was incubated in a CO2 incubator at 37° C. for 48 hours. The liquid in test wells was removed by pipetting. 100 μL CCK-8 (Cell counting Kit-8, purchased from DOJINDO Molecular Technologies) detection liquid (containing 10% CCK-8, 5% FBS corresponding medium) was added into each test well, then the plate was incubated in a CO2 incubator under at 37° C. for 3 hours. OD value was detected by ELIASA at A450 nm. Cell viability percentage (%)=(O.D. test compound-O.D. blank)/(O.D. control-O.D. blank)×100. Mean value was calculated for each 3 repeated wells, and IC50 was calculated using nonlinear regression (fitted curve) data analysis method.

H292 = assay: Inhibition of tumor cells, MTS method; assay type: cell-based; settings: Homo sapiens, NCI-H292, 72 hours
Experimental: as §6

HCC827 = assay: Inhibition of tumor cells, MTS method; assay type: cell-based; settings: Homo sapiens, 72 hours
Experimental: as §6

SK-Br-3 = assay: Inhibition of tumor cells, MTS method; assay type: cell-based; settings: Homo sapiens, 72 hours
Experimental: as §6

A431 = assay: Inhibition of tumor cells, MTS method; assay type: cell-based; settings: Homo sapiens, A-431, 72 hours
Experimental: as §6

H1975 = assay: Inhibition of tumor cells, MTS method; assay type: cell-based; settings: Homo sapiens, NCI-H1975, 72 hours
Experimental: as §6

MDA-MB-231 = assay: Inhibition of tumor cells, MTS method; assay type: cell-based; settings: Homo sapiens, 72 hours
Experimental: as §6

EGFR kinases = EGFR kinases (Homo sapiens, UniProt P00533); assay: Reversible inhibition test of enzyme activity of EGFR kinases; assay type: biochemical
A549 = assay: Inhibition of tumor cells, MTS method; assay type: cell-based; settings: Homo sapiens, 72 hours
Experimental: as §6

H1650 = assay: Inhibition of tumor cells, MTS method; assay type: cell-based; settings: Homo sapiens, NCI-H1650, 72 hours
Experimental: as §6

H1734 = assay: Inhibition of tumor cells, MTS method; assay type: cell-based; settings: Homo sapiens, NCI-H1734, 72 hours
Experimental: as §6

[3] = Pharmacokinetic experiments in CD-1 mice; assay type: in vivo; settings: male, mouse, plasma; for half-life: read-out: Terminal t1/2 (converted); for Vd: read-out: Vss
Experimental: Experiment animals: CD-1 mice, male, 6-7 weeks of age; body weight: 20-25 g; Preparation of samples: the test compounds respectively were formulated to 0.2 mg/mL (for intravenous administration) and 1.0 mg/mL (for oral administration) for use. Administration routes: oral administration/intravenous administration. Amount and frequency of administration: 5 mL/kg for single administration.
Sample collection: blood was collected at the time points of 5 min, 15 min, 30 min, 1 h, 2 h, 4 h, 8 h and 24 h, about […] whole blood was collected from 3 animals at each time point. All of the animals were euthanized after the experiments.
Sample analysis: the collected samples were detected by LC-MS/MS, and the instrument model is SHIMADZU20A-API4000.
as §5

Chain of HER2 (P04626 23-1255): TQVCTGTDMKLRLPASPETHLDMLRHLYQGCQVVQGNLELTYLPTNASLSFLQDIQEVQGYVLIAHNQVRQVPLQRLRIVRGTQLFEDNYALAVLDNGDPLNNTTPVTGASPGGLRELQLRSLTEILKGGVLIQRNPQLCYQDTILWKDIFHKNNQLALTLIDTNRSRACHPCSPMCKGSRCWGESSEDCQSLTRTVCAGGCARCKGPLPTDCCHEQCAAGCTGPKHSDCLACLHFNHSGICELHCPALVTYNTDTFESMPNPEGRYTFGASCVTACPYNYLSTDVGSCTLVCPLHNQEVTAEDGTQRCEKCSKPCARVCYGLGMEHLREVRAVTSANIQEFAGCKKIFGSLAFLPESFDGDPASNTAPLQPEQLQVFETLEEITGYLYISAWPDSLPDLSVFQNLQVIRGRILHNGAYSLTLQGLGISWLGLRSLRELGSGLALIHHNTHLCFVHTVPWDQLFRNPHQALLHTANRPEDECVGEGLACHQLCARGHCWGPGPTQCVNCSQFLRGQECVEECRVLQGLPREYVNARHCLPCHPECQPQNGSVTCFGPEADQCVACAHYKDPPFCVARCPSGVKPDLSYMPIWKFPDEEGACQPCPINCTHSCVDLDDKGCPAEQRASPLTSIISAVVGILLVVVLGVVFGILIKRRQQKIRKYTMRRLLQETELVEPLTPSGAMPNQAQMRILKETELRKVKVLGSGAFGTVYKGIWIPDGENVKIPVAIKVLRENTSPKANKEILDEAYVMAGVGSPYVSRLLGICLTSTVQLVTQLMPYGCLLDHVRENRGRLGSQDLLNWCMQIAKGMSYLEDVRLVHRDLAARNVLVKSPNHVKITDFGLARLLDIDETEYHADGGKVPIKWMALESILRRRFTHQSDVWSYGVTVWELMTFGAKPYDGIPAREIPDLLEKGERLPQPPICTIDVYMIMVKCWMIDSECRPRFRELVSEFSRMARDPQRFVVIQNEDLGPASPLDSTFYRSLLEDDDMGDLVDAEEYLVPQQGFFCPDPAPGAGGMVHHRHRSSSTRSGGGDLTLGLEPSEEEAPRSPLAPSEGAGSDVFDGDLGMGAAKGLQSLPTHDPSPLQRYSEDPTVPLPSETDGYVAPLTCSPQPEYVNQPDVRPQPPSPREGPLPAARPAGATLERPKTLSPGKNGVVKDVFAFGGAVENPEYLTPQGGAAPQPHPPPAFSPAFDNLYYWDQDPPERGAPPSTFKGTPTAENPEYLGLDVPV
Chain of EGFR (P00533 25-1210): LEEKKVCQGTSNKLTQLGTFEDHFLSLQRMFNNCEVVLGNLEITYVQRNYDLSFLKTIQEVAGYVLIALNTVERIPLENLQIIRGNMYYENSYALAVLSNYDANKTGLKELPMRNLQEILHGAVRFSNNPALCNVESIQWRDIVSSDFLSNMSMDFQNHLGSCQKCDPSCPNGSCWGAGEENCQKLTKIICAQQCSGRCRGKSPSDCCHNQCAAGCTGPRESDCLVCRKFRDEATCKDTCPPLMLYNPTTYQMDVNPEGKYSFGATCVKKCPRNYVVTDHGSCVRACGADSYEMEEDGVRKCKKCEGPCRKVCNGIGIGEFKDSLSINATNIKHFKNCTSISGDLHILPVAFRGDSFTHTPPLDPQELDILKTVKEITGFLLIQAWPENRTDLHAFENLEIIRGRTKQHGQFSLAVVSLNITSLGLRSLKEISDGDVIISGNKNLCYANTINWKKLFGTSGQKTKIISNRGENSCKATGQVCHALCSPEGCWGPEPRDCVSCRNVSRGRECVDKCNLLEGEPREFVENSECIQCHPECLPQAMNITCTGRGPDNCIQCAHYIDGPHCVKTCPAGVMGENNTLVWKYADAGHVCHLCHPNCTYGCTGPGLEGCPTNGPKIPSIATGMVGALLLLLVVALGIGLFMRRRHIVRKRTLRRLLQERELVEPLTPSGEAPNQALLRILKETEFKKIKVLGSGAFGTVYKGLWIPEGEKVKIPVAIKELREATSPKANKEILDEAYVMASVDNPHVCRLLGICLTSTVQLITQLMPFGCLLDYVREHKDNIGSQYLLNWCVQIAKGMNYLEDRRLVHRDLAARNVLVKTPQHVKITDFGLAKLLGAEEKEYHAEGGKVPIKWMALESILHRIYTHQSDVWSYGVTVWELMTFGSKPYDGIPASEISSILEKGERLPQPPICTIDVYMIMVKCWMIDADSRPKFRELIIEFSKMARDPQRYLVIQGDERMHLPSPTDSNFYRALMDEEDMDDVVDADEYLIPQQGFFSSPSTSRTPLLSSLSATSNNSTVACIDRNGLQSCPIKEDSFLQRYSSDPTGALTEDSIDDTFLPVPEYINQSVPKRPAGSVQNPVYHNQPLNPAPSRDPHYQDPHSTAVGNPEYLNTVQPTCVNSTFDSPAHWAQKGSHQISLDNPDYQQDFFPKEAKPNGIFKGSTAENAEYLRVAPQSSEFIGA
Chain of EGFR kinases (P00533 25-1210): as above

Row | SMILES | IC50 (EGFR) | IC50 (HER2) | IC50 (BT474) | IC50 (H292) | IC50 (HCC827) | IC50 (SK-Br-3) | IC50 (A431) | IC50 (H1975) | IC50 (MDA-MB-231) | IC50 (A549) | IC50 (H1650) | IC50 (H1734) | AUC(0-inf) ([3]; 1 mg/kg Intravenous Injection) | AUC(0-t) ([3]; 1 mg/kg Intravenous Injection) | MRT inf ([3]; 1 mg/kg Intravenous Injection) | clearance ([3]; 1 mg/kg Intravenous Injection) | half-life ([3]; 1 mg/kg Intravenous Injection) | Vd ([3]; 1 mg/kg Intravenous Injection) | AUC(0-t) ([3]; 5 mg/kg Oral Administration) | Cmax ([3]; 5 mg/kg Oral Administration) | other results
1 | CN(C)C/C=C/C(=O)Nc1cc2c(Nc3ccc(F)c(Cl)c3)ncnc2cc1O[C@H]1CCOC1 [Afatinib, reference compound] |  |  |  |  |  |  |  |  |  |  |  |  |  |  |  |  |  |  |  |  | toxicity reaction ([1]; rat, in vivo, 10 mg/kg): very significant toxicity reaction; weight during recovery phase after drug withdrawal ([1]; rat, in vivo, 10 mg/kg): reduced weight during the recovery phase; toxicity reaction ([1]; rats, 5 mg/kg, 28 days): significant toxicity reaction; toxicity reaction [2]: toxicity reactions
2 | O=C(/C=C/c1ccccn1)Nc1cc2c(Nc3ccc(F)c(Cl)c3)ncnc2cc1OC1CCOC1 (stereo not drawn) [Compound Ib] | 3.9 nM | 90 nM | 3.18 µM | 0.502 µM | 0.157 µM | 3.1 µM | 0.899 µM | 30.8 µM | 4.01 µM |  |  |  |  |  |  |  |  |  |  |  | 

Continued, in another order:

Row | IC50 (EGFR) | IC50 (HER2) | IC50 (BT474) | IC50 (H292) | IC50 (HCC827) | IC50 (SK-Br-3) | IC50 (A431) | IC50 (H1975) | IC50 (MDA-MB-231) | IC50 (A549) | IC50 (H1650) | IC50 (H1734) | AUC(0-inf) ([3]; 1 mg/kg Intravenous Injection) | AUC(0-t) ([3]; 1 mg/kg Intravenous Injection) | MRT inf ([3]; 1 mg/kg Intravenous Injection) | clearance ([3]; 1 mg/kg Intravenous Injection) | half-life ([3]; 1 mg/kg Intravenous Injection) | Vd ([3]; 1 mg/kg Intravenous Injection) | AUC(0-t) ([3]; 5 mg/kg Oral Administration) | Cmax ([3]; 5 mg/kg Oral Administration) | SMILES | other results
3 | 5.1 nM | > 10000 nM | 2.14 µM | 44.1 µM | 0.04 µM | 0.155 µM |  |  |  |  |  |  |  |  |  |  |  |  |  |  | COc1cc2ncnc(Nc3ccc(F)c(Cl)c3)c2cc1NC(=O)/C=C/c1ccccn1 [Compound Id] | 
4 | 2 nM | 13 nM | 0.264 µM | 0.873 µM | 0.015 µM | 0.42 µM | 4.91 µM | 0.882 µM |  | 5.93 µM | 6.57 µM | 1.34 µM | 110 ng·h/mL | 104 ng·h/mL | 0.616 h | 153 mL/min/kg | 0.729 h | 5.47 L/kg | 91.4 ng·h/mL | 31.4 ng/mL | CN(C/C=C/C(=O)Nc1cc2c(Nc3ccc(F)c(Cl)c3)ncnc2cc1OC1CCOC1)Cc1ccccc1 (stereo not drawn) [Compound Ia] | reversibility of inhibition of EGFR kinases (EGFR kinases): irreversibility; AUC(0-inf) ([3]; 5 mg/kg Oral Administration): 140 ng·h/mL; Tmax ([3]; 5 mg/kg Oral Administration): 1.17 h; half-life ([3]; 5 mg/kg Oral Administration): 1.76 h
5 | 1.3 nM | 15 nM | 0.278 µM | 0.727 µM | 0.012 µM | 0.418 µM | 13 µM | 0.715 µM | 13.9 µM | > 10 µM | > 10 µM | 5.26 µM | 206 ng·h/mL | 163 ng·h/mL | 3.01 h | 87.2 mL/min/kg | 2.63 h | 14.7 L/kg | 283 ng·h/mL | 66.7 ng/mL | COc1cc2ncnc(Nc3ccc(F)c(Cl)c3)c2cc1NC(=O)/C=C/CN(C)Cc1ccccc1 [Compound Ic] | Tmax ([3]; 5 mg/kg Oral Administration): 2 h
